Measured values from US10406120B2, “Methods and compositions for treating kidney disorders” (Golden Biotechnology Corporation, priority 2013, dated 2019).

Columns and labels:
[1] = FSGS model: urine protein and renal function (BUN, Cr); format: in vivo, BALB/c mice; settings: FSGS mice
Method: (§1) Experiments described herein were performed on 8-week-old female BALB/c mice. The FSGS mice were injected intravenously with a single dose of adriamycin (0.1 mg/10 g body weight). The mice were given Compound 1 six hours before adriamycin injection by gavage daily till sacrifice. BALB/c mice intraperitoneal injected with normal saline were used as normal controls, while ASLN mice given vehicle (corn oil) by gavage were used as disease controls. Mice were killed at day 7, 14, or 21 after disease induction, and spleen, renal cortical tissue, and blood samples collected and stored appropriately until analysis. All animal experiments were performed with the ethical approval of the Institutional Animal Care and Use Committee of The National Defense Medical Center, Taiwan and performed according to the ethical rules in the NIH Guide for the Care and Use of Laboratory Animals.
Urine samples were collected in metabolic cages at day 3, 7, 14, and 21, and urine protein was determined as described previously. (Shui, et al., Nephrol Dial Transplant, 21: 1794-1802, 2006) Serum samples were collected at day 7, 14, or 21 when mice were sacrificed to measure serum levels of BUN and Cr.

[2] = FSGS model: renal histopathology (H&E); format: in vivo, BALB/c mice; settings: FSGS mice, 50 mg/kg by gavage daily, day 14 to day 21, vs control FSGS mice
Method: as §1, with “The mice were given Compound 1 six hours before adriamycin injection by gavage daily till sacrifice.” left out
Formalin-fixed and paraffin-embedded renal sections were prepared as described in Shui et al. for renal pathologic evaluation. (Shui, et al., Transl Res, 150: 216-222, 2007) Renal pathology and scoring of renal lesions were performed according to the known method disclosed in Shui. […] The number of glomeruli with EPHLs was expressed as a percentage of the total number of evaluated glomeruli according to methods disclosed before (see for example, Shui, et al., Nephrol Dial Transplant, 21: 1794-1802, 2006; Ka, et al., Nephrol Dial Transplant, 21: 288-298, 2006).

NO = experiment: FSGS model: NO determination; format: in vivo, BALB/c mice; settings: FSGS mice
Method: as §1
NO levels in serum were detected with NO Detection kit (iNtRON Biotechnology, Seongnam, Korea), based on diazotization (Griess method), according to the manufacturer's instructions.

GPx = experiment: FSGS model: GPx activity in the kidney; format: in vivo, BALB/c mice; settings: FSGS mice, day 7 until day 21, vs control FSGS mice
Method: as §1
GPx activity in renal tissues was measured using a commercial Glutathione Peroxidase Assay kit (Cayman, Mich., USA) according to the manufacturer's instructions Enzyme activity was expressed relative to the protein concentration of glomerular homogenates.

[3] = AcP-IgAN model: urine protein and renal function (BUN, Cr); format: in vivo, B cell-deficient mice; settings: AcP-IgAN mice
Method: (§2) B cell-deficient mice (B6.129S2-Igh-6tm1Cgn/J) were obtained from the Academia Sinica (Professor John T. Kung, Institute of Molecular Biology), and maintained at the animal center of the National Defense Medical Center, Taipei, Taiwan. AcP-IgAN was induced in the mice by daily injection of purified IgA anti-phosphorylcholine antibodies and pneumococcal C-polysaccharide (PnC) as described previously (Chao, et al., Kidney Int. 70:283-297; 2006). All animal experiments were performed with the approval of the Institutional Animal Care and Use Committee of The National Defense Medical Center, Taiwan, and were consistent with the NIH Guide for the Care and Use of Laboratory Animals.
Body weight of the mice was measured weekly. Urine samples were collected in metabolic cages weekly, and urine protein determined followed the know methods (Chao, et al., Kidney Int. 70:283-297; 2006). Serum samples were collected at day 3 and day 28 to measure serum levels of blood urea nitrogen (BUN) and creatinine (Cr).

[4] = AcP-IgAN model: renal histopathology; format: in vivo, B cell-deficient mice; settings: AcP-IgAN mice
Method: as §2
For renal histopathology, the tissues were fixed in 10% buffered formalin and embedded in paraffin, and then sections (4 μm) were prepared and stained with hematoxylin and eosin (H&E). The proportion of glomeruli showing proliferation, crescent formation, sclerosis, or peri-glomerular inflammation was counted in 50 randomly sampled glomeruli by light microscopy at the magnification of 400×.

[5] = test system: glutathione peroxidase (GPx); experiment: AcP-IgAN model: renal GPx; format: in vivo, B cell-deficient mice; settings: AcP-IgAN mice
Method: as §2
Nuclear proteins were extracted using a nuclear extract kit (Active Motif, Japan). Phospho-NF-κB p65 and nuclear factor-erythroid-2-related factor 2 (NrF2) were measured in renal tissue nuclear protein extracts using Trans-AM ELISA assay kits (Active Motif), according to the manufacturer's instructions. Renal cytosolic protein extracts using RIPA buffer (Cell signaling). Cytosolic glutathione peroxidase (GPx) (Cayman, Mich.) and cytosolic heme oxygenase-1 (HO-1) (Enzo Life Sciences, NY) were measured using commercial ELISA kits according to the manufacturer's instructions. Both were expressed relative to the protein concentration in the lysate.

IL-18 = experiment: AcP-IgAN model: serum IL-18 ELISA; format: in vivo, B cell-deficient mice; settings: AcP-IgAN mice, day 28, vs control AcP-IgAN mice
Method: as §2
Serum levels of IL-1β (eBiosceience, CA), IL-6 (eBiosceience), IL-18 (MBL, Japan), and MCP-1 (eBiosceience) were measured using commercial ELISA kits according to the manufacturer's instructions.

[6] = 50 mg/kg by gavage daily, day 14 to day 21, vs control FSGS mice
[7] = day 7, among normal control, control FSGS and FSGS+Antroq mice
[8] = day 3, between control AcP-IgAN, AcP-IgAN+Antroq and normal control mice
[9] = day 28, vs control AcP-IgAN mice
[10] = day 3, vs control AcP-IgAN mice

COC1=C(OC)[C@H](O)[C@H](C/C=C(\C)CC/C=C(\C)CCC=C(C)C)[C@@H](C)C1=O [Compound 1, Antroquinonol]
urine protein levels ([1]; 50 mg/kg by gavage daily, day 7 to day 21, vs control FSGS mice (vehicle)): greatly suppressed | serum levels of blood urea nitrogen (BUN) [1, 6]: much better renal function | serum levels of creatinine (Cr) [1, 6]: much better renal function | serum levels of BUN [1, 7]: no significant difference | serum levels of Cr [1, 7]: no significant difference | progressive renal lesions (sclerotic lesions, glomeruli containing EPHL, peri-glomerular mononuclear leukocyte infiltration), H&E [2]: greatly reduced | urine levels of NO (NO; day 7, among normal control, FSGS+vehicle and FSGS+antroq mice): no detectable difference | serum NO levels (NO; day 7 to day 21, vs control FSGS mice): significantly suppressed | urine NO levels (NO; day 14 to day 21, vs control FSGS mice): effectively blunted | GPx activity in the kidney (GPx): recovered GPx activity | urine protein levels ([3]; 50 mg/kg, day 7 to day 28, vs control AcP-IgAN mice (vehicle)): greatly suppressed | proteinuria ([3]; compared to normal controls): mild proteinuria | serum levels of BUN [3, 8]: no significant difference | serum levels of Cr [3, 8]: no significant difference | serum levels of BUN [3, 9]: much better renal function | serum levels of creatinine [3, 9]: much better renal function | renal histopathology [4, 10]: significantly inhibited | renal lesions (proliferation, crescents, sclerosis, peri-glomerular leukocyte infiltration, tubular atrophy; except glomerular immune deposits) [4, 9]: substantially inhibited | GPx expression levels in renal tissues [5, 10]: no difference | GPx expression levels in renal tissues [5, 9]: significantly higher | serum IL-18 levels (IL-18): substantial inhibition
